Assay results taken from patent US20100093725A1, “SEMI-SOLID FORMULATIONS OF PHOSPHOLIPASE ENZYME INHIBITORS” (Wyeth, priority 2006, published 2010).

Tests used:
[1] = Solubility at room temperature in water, acid and basic conditions; format: physicochemical; details: aqueous solution under acid conditions (free acid form), aqueous buffer, HPLC detection limit, read-out: intrinsic solubility of the free acid
Method: The solubility of 4-(3-{5-chloro-1-(diphenylmethyl)-2-[2-({[2-(trifluoromethyl)benzyl]sulfonyl}amino)ethyl]-1H-indol-3-yl}propyl)benzoic acid was measured at room temperature in water, acid and basic conditions.

[2] = tested on: carrageenan-induced paw edema; assay: Rat carrageenan-induced paw edema (CPE) study; format: in vivo
Method: Data from a rat carrageenan-induced paw edema (CPE) study indicated the minimum efficacious exposure of 4-(3-{5-chloro-1-(diphenylmethyl)-2-[2-({[2-(trifluoromethyl)benzyl]sulfonyl}amino) ethyl]-1H-indol-3-yl}propyl)benzoic acid was 1360 ng*hr/ml.

solubility [1]: < 0.031 µg/mL
SMILES: O=C(O)c1ccc(CCCc2c(CCNS(=O)(=O)Cc3ccccc3C(F)(F)F)n(C(c3ccccc3)c3ccccc3)c3ccc(Cl)cc23)cc1 [4-(3-{5-chloro-1-(diphenylmethyl)-2-[2-({[2-(trifluoromethyl)benzyl]sulfonyl}amino)ethyl]-1H-indol-3-yl}propyl)benzoic acid]
minimum efficacious exposure [2]: 1360 ng·h/mL
